Data as given in article PMC5218480 (PLoS ONE, 2017).

Test system: MV-4-11 cells
Experiment: Gene expression microarray analysis (Affymetrix PrimeView) and GSEA
Format: cell-based, human
Conditions: MV-4-11, 48 hours, 1 μM each

With `Nc1ncn([C@@H]2O[C@H](CO)[C@@H](O)[C@H]2O)c(=O)n1` [azacitidine] the “genes down-regulated greater than 2-fold relative to vehicle control” value was 12 genes.
